The results in this text go back to patent US10508087B2, “Crystalline forms of trisodium supramolecular complex comprising valsartan and AHU-377 and methods thereof” (CRYSTAL PHARMATECH CO., LTD., priority 2014, dated 2019).

Where “and” joins values, the source holds several entries; their conditions need not be identical. Equal values may be shown once. Entries after “also recorded” stand apart in the source; their conditions may differ. Read-outs that look alike come from different tables or passages of the source.

Data set [1] in a line: Crystal form stability of drug substance in different temperature and humidity conditions. The class given is physicochemical. How it is done: The drug substance of Form II was subjected to different relative humidity levels at 40° C. (±2° C.), samples were pulled out and evaluated for crystal form after a specified time period, and the results are summarized in Table 10.
The drug substance of Form II was subjected to different temperatures at RH 32% (±5%), samples were pulled out and evaluated for crystal form after a specified time period, the results are summarized in Table 11.
The drug substance of Form II was packed with PE to evaluate the stability.
The drug substance of Form II was stored in sealed glass vial under ambient conditions for 9 months.

Assay in data set [2]: not given
This is another data set of the same source.

[3] abbreviates: drug substance powder, individual determination, trihydrate.

With `CCCCC(=O)N(Cc1ccc(-c2ccccc2-c2nnn[n-]2)cc1)[C@H](C(=O)[O-])C(C)C.CCOC(=O)[C@H](C)C[C@@H](Cc1ccc(-c2ccccc2)cc1)NC(=O)CCC(=O)[O-].O.O.O.[Na+].[Na+].[Na+]` [Form II, trisodium [3-((1S,3R)-1-biphenyl-4-ylmethyl-3-ethoxycarbonyl-1-butylcarbamoyl) propionate-(S)-3′-methyl-2′-(pentanoyl{2″-(tetrazol-5-ylate)biphenyl-4′-ylmethyl}amino) butyrate] trihydrate], the “Crystal form stability, accelerated” value in data set [1] (packed with PE, 40° C., RH 75%, one month) is “remained stable”. Besides, the Crystal form stability result in data set [1] (sealed glass vial, ambient conditions, 9 months) is “remained stable”. For the setting “humidity levels 50% RH to 60% RH at 25° C., trihydrate”, the “moisture uptake compared to patent form (DVS)” value was “less hygroscopic; also recorded: less moisture uptake”. The “Compressibility Index” value in data set [2] ((Tapped Density-Bulk Density)/Tapped Density*100%, individual determination, trihydrate) is 22% and 23% (2×). The “Compressibility Index Average” value in data set [2] (average of the determinations) worked out at 22%. Besides, in data set [2] (by compressibility index), the “flowability compared with patent form” value was “better”. In addition, in data set [2] (setting [3]), the “Bulk Density” value was 0.197 g/mL and 0.229 g/mL and 0.258 g/mL; the “Tapped Density” value was 0.251 g/mL and 0.297 g/mL and 0.337 g/mL. The Flowability result in data set [2] (rating by compressibility index, USP<1174>, trihydrate) is recorded as “Passable”.
On to `CCCCC(=O)N(Cc1ccc(-c2ccccc2-c2nnn[n-]2)cc1)[C@H](C(=O)[O-])C(C)C.CCOC(=O)[C@H](C)C[C@@H](Cc1ccc(-c2ccccc2)cc1)NC(=O)CCC(=O)[O-].O.[Na+].[Na+].[Na+]` [Form I, trisodium [3-((1S,3R)-1-biphenyl-4-ylmethyl-3-ethoxycarbonyl-1-butylcarbamoyl) propionate-(S)-3′-methyl-2′-(pentanoyl{2″-(tetrazol-5-ylate)biphenyl-4′-ylmethyl}amino) butyrate] hydrate], for which the “moisture uptake compared to patent form (DVS)” value (humidity levels 20% RH to 60% RH at 25° C., hydrate) is “less hygroscopic; also recorded: less moisture uptake”.
